Entries after “also recorded” stand apart in the source; their conditions may differ.
Columns and labels:
[1] = molecular target: T1, Gal4 DNA binding domain FXR ligand-binding domain fusion protein (Homo sapiens, UniProt Q96RI1); assay: Gal4 DBD-FXR LBD chimera transactivation assay in HEK 293 cells; assay type: cell-based; details: CDCA 100 μM, compounds 10 μM
T1 construct: expressed in transfected cells; host or cells: HEK 293
T1 sequence (Q96RI1 262-486 limits assumed): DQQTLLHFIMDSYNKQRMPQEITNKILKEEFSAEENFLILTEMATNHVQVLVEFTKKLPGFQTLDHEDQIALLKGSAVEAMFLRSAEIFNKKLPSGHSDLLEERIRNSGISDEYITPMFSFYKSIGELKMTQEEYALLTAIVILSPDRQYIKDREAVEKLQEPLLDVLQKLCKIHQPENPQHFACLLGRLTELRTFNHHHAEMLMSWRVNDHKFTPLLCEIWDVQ
Description: FIG. 10: Berberine derivatives inhibit FXR transactivation. HEK 293 cells were cotransfected with a luciferase reporter plasmid containing five copies of the Gal4 binding site and an expression vector for a Gal4 DNA binding domain FXR ligand-binding domain fusion protein, along with a CMX-β-gal internal control. CDCA: 100 μM, Compounds: 10 μM
In the presence of 100 μM CDCA, a concentration approximately threefold above that required for half-maximal activation of FXR, 10 μM selected berberine derivatives decreased FXR transactivation by nearly 50%.

FXR-RXR heterodimers = molecular target: T2, FXR-RXR heterodimers (Homo sapiens, UniProt Q96RI1); assay: Specific DNA binding by FXR-RXR heterodimers in vitro; assay type: biochemical; details: data not shown
T2 sequence (Q96RI1 1-486): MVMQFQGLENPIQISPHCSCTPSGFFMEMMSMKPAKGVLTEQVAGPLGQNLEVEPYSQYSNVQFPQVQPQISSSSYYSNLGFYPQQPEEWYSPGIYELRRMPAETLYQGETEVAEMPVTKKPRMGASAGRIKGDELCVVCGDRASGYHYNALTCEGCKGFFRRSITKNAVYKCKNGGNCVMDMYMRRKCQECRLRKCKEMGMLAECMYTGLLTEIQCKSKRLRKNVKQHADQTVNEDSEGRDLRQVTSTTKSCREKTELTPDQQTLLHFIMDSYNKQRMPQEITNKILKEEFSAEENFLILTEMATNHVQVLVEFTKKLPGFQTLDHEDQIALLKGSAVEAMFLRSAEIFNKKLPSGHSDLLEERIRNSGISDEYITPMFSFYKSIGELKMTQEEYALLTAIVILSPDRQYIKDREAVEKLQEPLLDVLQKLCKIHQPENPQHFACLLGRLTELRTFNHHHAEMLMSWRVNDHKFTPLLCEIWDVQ
T2 sequence (P19793 1-462 partner): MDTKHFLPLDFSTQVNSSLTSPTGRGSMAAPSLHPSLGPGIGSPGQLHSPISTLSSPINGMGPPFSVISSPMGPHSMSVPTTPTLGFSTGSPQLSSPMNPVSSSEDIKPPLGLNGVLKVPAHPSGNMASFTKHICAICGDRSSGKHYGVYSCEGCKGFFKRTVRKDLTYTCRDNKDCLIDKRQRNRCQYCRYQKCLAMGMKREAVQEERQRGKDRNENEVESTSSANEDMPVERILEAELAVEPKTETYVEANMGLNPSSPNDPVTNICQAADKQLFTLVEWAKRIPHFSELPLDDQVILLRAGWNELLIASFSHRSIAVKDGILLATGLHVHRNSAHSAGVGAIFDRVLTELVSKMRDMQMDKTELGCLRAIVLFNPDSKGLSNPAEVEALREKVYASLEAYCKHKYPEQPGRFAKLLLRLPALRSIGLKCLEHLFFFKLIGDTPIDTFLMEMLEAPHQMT

DIO mice = assay: Hepatic lipid accumulation, Oil Red O staining; assay type: in vivo, mouse
Description: FIG. 9(A). lean mice. FIG. 9(B). DIO mice, FIG. 9(C). berberine, and FIG. 9(D). DY319. Intracellular lipids were stained with Oil Red O and visualized by phase-contrast microscopy (×200 magnification).
Cells on day 7 were washed twice with PBS, fixed with 10% neutral buffered formalin for 1 h at room temperature, washed with PBS and then dried completely. The fixed cells were stained with Oil Red O in an isopropanol/distilled water (6:4) solution for 30 min at room temperature and then washed twice with distilled water. The stained lipid droplets were observed, and microscopic images were obtained from randomly selected fields under a phase contrast microscope (AX70; Olympus, Tokyo, Japan) equipped with a digital camera and processed using ImagePro Plus software (Media Cybernetics, Silver Spring, Md., USA).

NCI-H716 cells = details: cited from earlier work
[2] = oral 1.0 g/day/person for 3 months; cited from earlier work
db/db mice = details: mouse, in vivo; cited from earlier work

COc1ccc2cc3[n+](cc2c1OC)CCc1cc2c(cc1-3)OCO2 [berberine]
Transactivation by GAL4 DBD-FXR LBD chimera [1]: did inhibit transactivation | Specific DNA binding by FXR-RXR heterodimers (FXR-RXR heterodimers): did not affect specific DNA binding | Hepatic lipid accumulation (DIO mice): prevent hepatic lipid accumulation | Prohormone convertase 3 and proglucagon mRNA expression (NCI-H716 cells): promoted both prohormone convertase 3 and proglucagon mRNA expression | GLP-1 release (NCI-H716 cells; in vitro): modulated GLP-1 release; also recorded: concentration-dependently stimulated GLP-1 release | Efficacy and safety in type 2 diabetes and dyslipidemia [2]: effective and safe | Metabolic properties in db/db mice (db/db mice): insulin sensitizing as well as weight- and lipid-lowering properties
